Assay results published in patent publication US11879140B2, “P21 mRNA targeting DNAzymes” (1E Therapeutics Ltd., priority 2020, dated 2024).
“Also recorded” adds a separate entry of the source.

Key:
p21 protein = p21 protein staining in HepG2 cells; format: cell-based, human; details: Etoposide alone or together with DNAzyme (FIGS. 15A-B)
Procedure: Alternatively, cells were fixed with 4% Formaldehyde for 15 minutes, permeabilized in 0.2% […] for 5 minutes and blocked with 2% bovine serum albumin (BSA) for 30 min in room temperature. Cells were then incubated with a primary or with a conjugated antibody over-night or for 3 hours respectively. For unconjugated antibodies, a corresponding fluorescently-labelled secondary antibody was added for 1 hour, followed by Hoechst counterstaining. Cells were washed with PBS three times following each step. Images were acquired using Nikon Eclipse Ti2 microscope at ×10 magnification.
Antibodies were diluted in blocking solution as indicated below: 53BP1 antibody (Novus biologicals NB100-304, 1:800), Phospho-histone H2AX antibody (Cell signaling #2577, 1:800), p21 Waf1/Cip1 antibody (Cell signaling #8865, 1:500), p16 antibody (Santa Cruz sc-56330, 1:200), Alexa Fluor-488 goat anti mouse (Thermo Fisher A11029, 1:1000).

p21 mRNA = assay: Quantitative RT-PCR of p21 mRNA in senescent cells; format: cell-based, human; details: over 24 hours following treatment, 2000 nM (FIG. 5D)
Procedure: Total RNA was extracted from IMR-90 cells using NucleoSpin® RNA (Macherey-Nagel™), according to the manufacturer protocol. Complementary DNA was prepared using the M-MLV Reverse Transcriptase (Promega), according to the manufacturer protocol. Quantitative real-time PCR was performed using the SYBR Green PCR master-mix (Applied Biosystems) on a CFX96 Real-Time PCR System (Bio Rad). See primer sequences in Table 1, above.

human p21 mRNA = assay: In vitro cleavage assay of human p21 mRNA; format: biochemical; details: in vitro cleavage of p21 mRNA (SEQ ID NO: 1); RNA substrate 500 nM, 37° C. 60 min, agarose gel
Summary of the method: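 RNA substrates were T7 in vitro transcripts from PCR-amplified cDNA (source RNA: senescent IMR-90 cells), gel-purified. Substrate at 500 nM final was incubated with DNAzyme (10 μM stock) in reaction buffer (10× stock: 50 mM Tris-HCl pH 7.4, 100 mM NaCl, 10 mM MgCl2) for 60 min at 37 °C. Cleavage products were resolved on 1.5% agarose TBE gels and quantified by densitometry.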

cancer cells (A549) = assay: Dose response on A549 cancer cells; format: cell-based; details: A549, scramble versus DNAzyme 1670 (FIG. 16B)
Text: PANC-1 cells were maintained in DMEM medium supplemented with 10% fetal bovine serum, 1% penicillin-streptomycin and 1% sodium pyruvate. HCT116 cells were maintained in McCoy's 5A medium supplemented with 10% fetal bovine serum and 1% penicillin-streptomycin. A549 cells were maintained in F-12K Medium supplemented with 10% fetal bovine serum and 1% penicillin-streptomycin. HepG2 cell were maintained Eagle's Minimum Essential Medium, supplemented in 10% fetal bovine serum, 1% penicillin-streptomycin and 1% sodium pyruvate. All cancer cell lines were incubated in 5% C02 at 37° C.
Cancer cell lines were seeded in 96 well plates 24 hours before treatment. Chemotherapies were applied at indicated concentrations either alone or as combination with DNAzyme-lipofectamine complex. 72 hours following treatment, cell viability was measured using Prestoblue® reagent. Chemotherapies were diluted in cell medium to the indicated concentrations. 24 hours following seeding, culture medium was replaced with chemotherapy containing medium, immediately followed by transfection of DNAzyme as described above. 72 hours following treatment, cell viability was measured using Prestoblue® reagent.

**Q.** With “DNAzyme 1670: SEQ ID NO: 54: GGGAAAGGAggctagctacaacgaAAGGGGGAG (DNA GGGAAAGGAGGCTAGCTACAACGAAAGGGGGAG; DNA, backbone and methylation of C not given here)” as the substance, how does the “p21 protein immunofluorescent staining in HepG2 cells” value (p21 protein) read?
**A.** significant decrease in staining; also recorded: p21 upregulation is blocked

**Q.** What about the “p21 mRNA knockdown” value (p21 mRNA) of the same substance?
**A.** 57%

**Q.** What about the Validated cleavage (human p21 mRNA) of the same substance?
**A.** time and concentration dependent; also recorded: validated for mediating cleavage of p21 mRNA

**Q.** And the “senolytic effect, dose response” value (cancer cells (A549))?
**A.** senolytic effect in a wide range of doses; also recorded: effective at much lower concentration
